The source made the active and inactive calls. No cut-off for these calls is given here. Bounds are passed on as bounds.

The first data set concerns Pseudomonas aeruginosa. In words: Antibacterial activity against wild-type Pseudomonas aeruginosa PAO1 assessed as bacterial growth inhibition by CLSI based broth-microdilution method. Format: functional.
Conditions: not given
(Broth dilution looks for growth in wells or tubes with falling amounts of substance.)
On to `Cc1cc(=O)c(O)c(CNC(=O)CSc2nc3c([N+](=O)[O-])cccc3o2)n1C`, for which the minimum inhibitory concentration (MIC) (commonly the lowest concentration found to suppress growth) is > 128 µM.
The same measure, in the same setting: next, `Cn1cc(O)c(=O)cc1CNC(=O)CSc1nc2cc([N+](=O)[O-])ccc2[nH]1`: > 128 µM; `Cn1cc(O)c(=O)cc1CNC(=O)CSc1nc2ccc([N+](=O)[O-])cc2s1`: > 128 µM; `Cc1cc(=O)c(O)c(CNC(=O)CSc2nncs2)n1C`: > 128 µM.
As to `COc1ccc2nc(SCC(=O)NCc3c(O)c(=O)cc(C)n3C)sc2c1`, the MIC was > 128 µM.
On the same count and under the same terms, the same measure for `Cc1cc(=O)c(O)c(CNC(=O)CSc2nc3ccccc3[nH]2)n1C`: > 128 µM; for `Cc1cc(=O)c(O)c(CNC(=O)CSc2nc3ccccc3s2)n1C`: > 128 µM; for `Cc1cc(=O)c(O)c(CNC(=O)CSc2nc3cc([N+](=O)[O-])ccc3[nH]2)n1C`: > 128 µM.
Still for that read-out and setting: next, `Cc1cc(=O)c(O)c(CNC(=O)CSc2nc3cc(Cl)ccc3[nH]2)n1C`: > 128 µM; `Cc1cccc2sc(SCC(=O)NCc3c(O)c(=O)cc(C)n3C)nc12`: > 128 µM; `Cc1cc(=O)c(O)c(CNC(=O)CSc2nc3cc(C(F)(F)F)ccc3[nH]2)n1C`: > 128 µM.
Still for that read-out and setting: next, `Cc1cc(=O)c(O)c(CNC(=O)CSc2nccn2C)n1C`: > 128 µM; `Cc1ccc2[nH]c(SCC(=O)NCc3c(O)c(=O)cc(C)n3C)nc2c1`: > 128 µM; `COc1ccc2sc(SCC(=O)NCc3c(O)c(=O)cc(C)n3C)nc2c1`: > 128 µM.
On to `Cc1cc(=O)c(O)c(CNC(=O)CSc2ccncc2)n1C`, for which the MIC was > 128 µM.
On the same count and under the same terms, next, `Cc1ccc2oc(SCC(=O)NCc3c(O)c(=O)cc(C)n3C)nc2c1`: > 128 µM.
The same measure, in the same setting: the same measure for `Cc1ccc2[nH]c(SCC(=O)NCc3cc(=O)c(O)cn3C)nc2c1`: > 128 µM; for `Cc1cc(=O)c(O)c(CNC(=O)CSc2ccc([N+](=O)[O-])cc2)n1C`: > 128 µM.
Still for that read-out and setting: next, `CCOc1ccc2[nH]c(SCC(=O)NCc3c(O)c(=O)cc(C)n3C)nc2c1`: > 128 µM; `Cc1cc(=O)c(O)c(CNC(=O)CSc2ncccn2)n1C`: > 128 µM.
`Cc1cc(=O)c(O)c(CNC(=O)CSc2nc3cc(Cl)ccc3s2)n1C`: the MIC is > 128 µM.
For the molecule `Cc1ccc2nc(SCC(=O)NCc3c(O)c(=O)cc(C)n3C)sc2c1`, the MIC is > 128 µM.
Consider `Cc1cc(C)nc(SCC(=O)NCc2c(O)c(=O)cc(C)n2C)n1`, for which the minimal inhibitory concentration (MIC) is > 128 µM.

Tested on in another data set: not listed separately
In words: Inhibition of quorum sensing system in Pseudomonas aeruginosa PAO1 harboring pqsA-gfp assessed as decrease in pqsA expression measured for 12 hrs by fluorescence based assay. To be noted: dose 1.25-20 µM.
Regarding `Cc1cc(=O)c(O)c(CNC(=O)CSc2nc3cc([N+](=O)[O-])ccc3[nH]2)n1C`, the inhibition (usually the relative decrease from the control value, in per cent) was “Dose-Dependent Effect”.

Tested on in the next data set: not listed separately
Briefly: Anti-virulence effect in African green monkey Vero cells infected with Pseudomonas aeruginosa assessed as cell survival at 20 uM incubated for 24 hrs by MTT assay (reference value: 37.7 %). It is filed as functional. To be noted: Chlorocebus sabaeus, read-out: Activity.
Turning to `Cc1cc(=O)c(O)c(CNC(=O)CSc2nc3cc([N+](=O)[O-])ccc3[nH]2)n1C`, the viability at 20 µM was determined as 71.5%.

The test system of the next data set is Pseudomonas aeruginosa. In words: Antibiofilm activity against wild-type Pseudomonas aeruginosa PAO1 at 20 uM incubated for 24 hrs by confocal laser scanning microscopy. It is filed as functional, organism-based.
Conditions: not given
As to `Cc1cc(=O)c(O)c(CNC(=O)CSc2nc3cc([N+](=O)[O-])ccc3[nH]2)n1C`, the result was Active.

The subject of the next data set is Pseudomonas aeruginosa. In words: Antibiofilm activity against wild-type Pseudomonas aeruginosa PAO1 incubated for 24 hrs by crystal violet staining based assay. Format: functional, organism-based. To be noted: PAO1, 24 h.
Consider `Cc1cc(=O)c(O)c(CNC(=O)CSc2nc3cc([N+](=O)[O-])ccc3[nH]2)n1C`, for which the 50% inhibitory concentration (IC50) (in general, the concentration at which inhibition is half-maximal) came out at 10.6 µM.

The same data set, now with this note: dose 1.25-20 µM.
In the case of `Cc1cc(=O)c(O)c(CNC(=O)CSc2nc3cc([N+](=O)[O-])ccc3[nH]2)n1C`, the Activity result is “Dose-Dependent Effect”.

Tested on in another data set: not listed separately
In words: Cytotoxicity against African green monkey Vero cells assessed as cell viability at 3.125 to 50 uM incubated for 24 hrs by MTT assay. Format: toxicity, cell-based. The conditions noted are these: chlorocebus sabaeus, dose 3.125-50 µM. On the technique in general: Tetrazolium assays rely on reduction of a dye to a coloured formazan, in cell work by metabolically active cells.
`Cc1cc(=O)c(O)c(CNC(=O)CSc2nc3cc([N+](=O)[O-])ccc3[nH]2)n1C`: the Activity entry is “Non-Toxic”.

In the next data set the test system is Pseudomonas aeruginosa. In words: Inhibition of swarming motility in Pseudomonas aeruginosa PAO1 incubated for 16 hrs. To be noted: dose 1.25-20 µM. It is filed as functional, organism-based.
With `Cc1cc(=O)c(O)c(CNC(=O)CSc2nc3cc([N+](=O)[O-])ccc3[nH]2)n1C`, the inhibition entry is “Dose-Dependent Effect”.

A further data set has as its system Pseudomonas aeruginosa. In words: Antibiofilm activity against wild-type Pseudomonas aeruginosa PAO1 at 2.5 uM incubated for 24 hrs by crystal violet staining based assay relative to control. Format: functional.
Conditions: not given
As for `Cc1cc(=O)c(O)c(CNC(=O)CSc2nc3cc([N+](=O)[O-])ccc3[nH]2)n1C`, the inhibition at 2.5 µM was > 30%.

In the next data set the test system is Vero. In words: Anti-virulence effect in African green monkey Vero cells infected with Pseudomonas aeruginosa assessed as increase in cell survival incubated for 24 hrs by MTT assay. It is filed as functional, cell-based. The conditions noted are these: Chlorocebus sabaeus, dose <= 20.0 µM.
In the case of `Cc1cc(=O)c(O)c(CNC(=O)CSc2nc3cc([N+](=O)[O-])ccc3[nH]2)n1C`, the Activity entry is “Dose-Dependent Effect”.

A further data set has as its system Pseudomonas aeruginosa. Briefly: Anti-virulence effect in Pseudomonas aeruginosa PAO1 assessed as decrease in elastase level incubated for 24 hrs by fluorescence based assay. It is filed as functional, organism-based. To be noted: dose 1.25-20 µM.
For `Cc1cc(=O)c(O)c(CNC(=O)CSc2nc3cc([N+](=O)[O-])ccc3[nH]2)n1C`, the Activity entry is “Dose-Dependent Effect”.

In a further data set the test system is Pseudomonas aeruginosa. Briefly: Anti-virulence effect in Pseudomonas aeruginosa PAO1 assessed as decrease in pyocyanin level incubated for 48 hrs by absorbance based assay. It is filed as functional, organism-based. To be noted: dose 1.25-20 µM.
Turning to `Cc1cc(=O)c(O)c(CNC(=O)CSc2nc3cc([N+](=O)[O-])ccc3[nH]2)n1C`, the Activity result is “Dose-Dependent Effect”.

For a further data set, the system named is Pseudomonas aeruginosa. Briefly: Synergistic activity against Pseudomonas aeruginosa PAO1 assessed as reduction in ciprofloxacin MIC […] at 20 uM relative to control. It is filed as functional. Set-up: scale not given: the % may be the effect or the level left.
Conditions: not given
For the molecule `Cc1cc(=O)c(O)c(CNC(=O)CSc2nc3cc([N+](=O)[O-])ccc3[nH]2)n1C`, the Activity is given as ~50%.

A further data set deals with Pseudomonas aeruginosa. Briefly: Antibiofilm activity against wild-type Pseudomonas aeruginosa PAO1 assessed as inhibition rate at 10 uM incubated for 24 hrs by crystal violet staining based assay relative to control. It is filed as functional.
Conditions: not given
Take `Cc1cc(=O)c(O)c(CNC(=O)CSc2nc3c([N+](=O)[O-])cccc3o2)n1C`: the inhibition at 10 µM was 30.6%.
The same measure, in the same setting: the same measure for `Cn1cc(O)c(=O)cc1CNC(=O)CSc1nc2cc([N+](=O)[O-])ccc2[nH]1`: -15.2%; for `Cn1cc(O)c(=O)cc1CNC(=O)CSc1nc2ccc([N+](=O)[O-])cc2s1`: 29.1%.
The same measure, in the same setting: next, `Cc1cc(=O)c(O)c(CNC(=O)CSc2nncs2)n1C`: 16.9%.
The same measure, in the same setting: next, `COc1ccc2nc(SCC(=O)NCc3c(O)c(=O)cc(C)n3C)sc2c1`: -22.4%.
As for `Cc1cc(=O)c(O)c(CNC(=O)CSc2nc3ccccc3[nH]2)n1C`, the inhibition at 10 µM turned out to be 44.6%.
Consider `Cc1cc(=O)c(O)c(CNC(=O)CSc2nc3ccccc3s2)n1C`, for which the inhibition at 10 µM amounted to 22.1%.
Regarding `Cc1cc(=O)c(O)c(CNC(=O)CSc2nc3cc([N+](=O)[O-])ccc3[nH]2)n1C`, the inhibition at 10 µM came to 51.5%.
Still for that read-out and setting: next, `Cc1cccc2sc(SCC(=O)NCc3c(O)c(=O)cc(C)n3C)nc12`: 20.8%; `Cc1cc(=O)c(O)c(CNC(=O)CSc2nccn2C)n1C`: 30%; `Cc1ccc2[nH]c(SCC(=O)NCc3c(O)c(=O)cc(C)n3C)nc2c1`: 7.4%.
Same read-out and setting: next, `COc1ccc2sc(SCC(=O)NCc3c(O)c(=O)cc(C)n3C)nc2c1`: 7.27%.
On the same count and under the same terms, next, `Cc1ccc2oc(SCC(=O)NCc3c(O)c(=O)cc(C)n3C)nc2c1`: 45.8%; `Cc1ccc2[nH]c(SCC(=O)NCc3cc(=O)c(O)cn3C)nc2c1`: 3.29%.
With `Cc1cc(=O)c(O)c(CNC(=O)CSc2ccc([N+](=O)[O-])cc2)n1C`, the inhibition at 10 µM stood at 31.9%.
Take `CCOc1ccc2[nH]c(SCC(=O)NCc3c(O)c(=O)cc(C)n3C)nc2c1`: the inhibition at 10 µM was -17.5%.
The same measure, in the same setting: the same measure for `Cc1cc(=O)c(O)c(CNC(=O)CSc2ncccn2)n1C`: 7.18%.
The same measure, in the same setting: next, `Cc1cc(=O)c(O)c(CNC(=O)CSc2nc3cc(Cl)ccc3s2)n1C`: 5.12%.
On the same count and under the same terms, next, `Cc1ccc2nc(SCC(=O)NCc3c(O)c(=O)cc(C)n3C)sc2c1`: 31.2%; `Cc1cc(C)nc(SCC(=O)NCc2c(O)c(=O)cc(C)n2C)n1`: 22.6%.

Tested on in the next data set: not listed separately
Briefly: Inhibition of quorum sensing system in Pseudomonas aeruginosa PAO1 harboring lasB-gfp assessed as decrease in lasB expression measured for 12 hrs by fluorescence based assay. To be noted: dose 1.25-20 µM.
`Cc1cc(=O)c(O)c(CNC(=O)CSc2nc3cc([N+](=O)[O-])ccc3[nH]2)n1C`: the inhibition result is “Dose-Dependent Effect”.

For a further data set, the system named is Pseudomonas aeruginosa. In words: Effect on rhlA expression in Pseudomonas aeruginosa PAO1 harboring rhlA-gfp at 1.25 to 20 uM measured for 12 hrs by fluorescence based assay. It is filed as functional. The conditions noted are these: dose 1.25-20 µM.
In the case of `Cc1cc(=O)c(O)c(CNC(=O)CSc2nc3cc([N+](=O)[O-])ccc3[nH]2)n1C`, the result was inactive.

A further data set relates to Pseudomonas aeruginosa. Briefly: Effect on rhamnolipid level in Pseudomonas aeruginosa PAO1 at 1.25 to 20 uM incubated for 24 hrs by absorbance based assay. Format: functional, organism-based. The conditions noted are these: dose 1.25-20 µM.
In the case of `Cc1cc(=O)c(O)c(CNC(=O)CSc2nc3cc([N+](=O)[O-])ccc3[nH]2)n1C`, the result was inactive.

(Values after ChEMBL document CHEMBL5625198, “Design, synthesis and biological evaluation of novel 3-hydroxypyridin-4(1H)-ones based hybrids as Pseudomonas aeruginosa biofilm inhibitors” (Eur J Med Chem, 2023).)
